From publication PMC11237035, “Glutathione determines chronic myeloid leukemia vulnerability to an inhibitor of CMPK and TMPK” (Communications Biology, 2024)
Values joined by “and” are separate entries in the source; they are usually repeats but may differ in a detail not shown here. Identical values can stand only once. Like-named read-outs stand apart in the source and are kept apart here.

Key:
WT-Bcr-Abl-32D cells = assay: Western blot of tyrosine phosphorylation and Bcr-Abl downstream signaling, WT-Bcr-Abl-32D cells; assay type: cell-based, mouse; details: WT-Bcr-Abl-32D cells, JMF4073 at indicated concentrations, Western blot
Description: (§1) Supplementary Figure 1. Bcr-Abl-activated downstream signaling in WT- and
(§2) The comparison of Bcr-Abl downstream signaling (Akt, mTorC1, and Stat5) in WT- […]

T315I-Bcr-Abl-32D cells [1] = assay: Western blot of tyrosine phosphorylation and Bcr-Abl downstream signaling, T315I-Bcr-Abl-32D cells; assay type: cell-based, mouse; details: T315I-Bcr-Abl-32D cells, JMF4073 at indicated concentrations, Western blot
Description: as §1, §2

TCCS cells = assay: CCK-8 cell viability assay, TCCS cells; details: for cell viability (Figure 7d) / cell viability (Figure 7g): TCCS, per replicate; for cell viability (Figure 7d): relative to 0 = 100; for cell viability (Figure 7g): NT, NT 0 μM = 100
Description: After 3 days, cells were analyzed by viability assays.
Cells were seeded at the density of 1 × 10^3 cells/well in 96-well microplate. After 3 days, cell viability was determined using the CCK-8 cell viability. The viability was measured by using Tecan Spark 10 microplate reader at 450 nm according to the manufacturer’s instructions.

T315I-Bcr-Abl-32D cells [2] = assay: CCK-8 cell viability assay, T315I-Bcr-Abl-32D cells; assay type: cell-based, mouse; details: for cell viability (% of NT, 0 JMF4073), Figure 5e / cell viability (% of 0 JMF4073), Figure 5b: T315I; for cell viability (% of NT, 0 JMF4073), Figure 5e: NT (no BSO)

With CC(C)(C)OC(=O)N1CCN(C(=O)Cn2sc3ccc(F)cc3c2=O)CC1 [JMF4073, Tert-butyl 4-(2-(5-fluoro-3-oxobenzo[d]isothiazol-2(3H)-yl)acetyl) piperazine-1-carboxylate] the “levels of overall tyrosine phosphorylation” value (WT-Bcr-Abl-32D cells) was “unaffected”, the “levels of overall tyrosine phosphorylation” value (T315I-Bcr-Abl-32D cells [1]) was “unaffected” and the “sensitivity to combinatory treatment of JMF4073 and UK-5099” value (TCCS cells; TCCS cells) was “insensitive”. For the same molecule, the JMF4073 sensitivity (TCCS cells; TCCS cells, 3 days, compared among K562, TCCS, KOPM28) was “less”, the “JMF4073 sensitivity after erastin pretreatment” value (TCCS cells; TCCS cells, erastin 0.5 μM, 16 h) was “markedly increased” and the “cell viability (Figure 7d)” value (TCCS cells; JMF4073 0.625) was 120.422 and 103.29 and 164.136. For the same molecule, the “cell viability (Figure 7d)” value (TCCS cells; JMF4073 1.25) was 102.037 and 133.359, the “cell viability (Figure 7d)” value (TCCS cells; JMF4073 2.5) was 39.3238 and 117.065 and the “cell viability (Figure 7d)” value (TCCS cells; JMF4073 5) was 61.7646 and -1.852 and 14.6452. For the same molecule, the “cell viability (Figure 7g)” value (TCCS cells; JMF 4073 0.625 μM) was 120.422 and 103.29 and 164.136, the “cell viability (Figure 7g)” value (TCCS cells; JMF 4073 1.25 μM) was 102.037 and 133.359 and the “cell viability (Figure 7g)” value (TCCS cells; JMF 4073 2.5 μM) was 39.3238 and 117.065. For the same molecule, the “cell viability (Figure 7g)” value (TCCS cells; JMF 4073 5 μM) was 61.7646 and -1.852 and 14.6452, the viability at 1000 µM (T315I-Bcr-Abl-32D cells [2]; Mus musculus, T315I-Bcr-Abl, JMF4073 1 mM (so in the source), single replicates, read-out: viability (0 = 100)) was 69% and the viability at 500 µM (T315I-Bcr-Abl-32D cells [2]; Mus musculus, T315I-Bcr-Abl, NT (no UK-5099), JMF4073 0.5 mM as printed, replicates, read-out: Figure 6c, viability relative to NT (=100)) was 80.7%. It also gave a viability at 1250 µM (T315I-Bcr-Abl-32D cells [2]; Mus musculus, T315I-Bcr-Abl, NT (no UK-5099), JMF4073 1.25 mM as printed, replicates, read-out: Figure 6c, viability relative to NT (=100)) of 43%, a viability at 500 µM (T315I-Bcr-Abl-32D cells [2]; Mus musculus, read-out: cell viability (% of 0 JMF4073), Figure 5b, T315I, shLacZ, JMF4073 0.5 mM (so in the source), single replicates) of 78.6% and a viability at 2500 µM (T315I-Bcr-Abl-32D cells [2]; Mus musculus, read-out: cell viability (% of 0 JMF4073), Figure 5b, T315I, shLacZ, JMF4073 2.5 mM (so in the source), single replicates) of 15.5%. The viability at 500 µM (T315I-Bcr-Abl-32D cells [2]; Mus musculus, read-out: cell viability (% of 0 JMF4073), Figure 5b, T315I, shSHMT2, JMF4073 0.5 mM (so in the source), single replicates) was 71.4%, the viability at 1250 µM (T315I-Bcr-Abl-32D cells [2]; Mus musculus, read-out: cell viability (% of 0 JMF4073), Figure 5b, T315I, shSHMT2, JMF4073 1.25 mM (so in the source), single replicates) was 52.1% and the viability at 2500 µM (T315I-Bcr-Abl-32D cells [2]; Mus musculus, read-out: cell viability (% of 0 JMF4073), Figure 5b, T315I, shSHMT2, JMF4073 2.5 mM (so in the source), single replicates) was 14.5%. The viability at 500 µM (T315I-Bcr-Abl-32D cells [2]; Mus musculus, read-out: cell viability (% of NT, 0 JMF4073), Figure 5e, T315I, NT (no BSO), JMF4073 0.5 mM (so in the source), single replicates) was 88%, the viability at 1250 µM (T315I-Bcr-Abl-32D cells [2]; Mus musculus, read-out: cell viability (% of NT, 0 JMF4073), Figure 5e, T315I, NT (no BSO), JMF4073 1.25 mM (so in the source), single replicates) was 64% and the GI50 (T315I-Bcr-Abl-32D cells [2]; Mus musculus, T315I-Bcr-Abl-32D cells, viability) was 1500 nM. For the same molecule, the “cell viability (% of NT, 0 JMF4073), Figure 5e” value (T315I-Bcr-Abl-32D cells [2]; JMF4073 0.5 mM (so in the source), single replicates) was 86.2452 and 88.0302, the “cell viability (% of NT, 0 JMF4073), Figure 5e” value (T315I-Bcr-Abl-32D cells [2]; JMF4073 1.25 mM (so in the source), single replicates) was 67.023 and 70.4858 and the “cell viability (% of NT, 0 JMF4073), Figure 5e” value (T315I-Bcr-Abl-32D cells [2]; JMF4073 2.5 mM (so in the source), single replicates) was 17 and 12.279 and 45.0063. For the same molecule, the “cell viability (% of 0 JMF4073), Figure 5b” value (T315I-Bcr-Abl-32D cells [2]; shLacZ, JMF4073 0.5 mM (so in the source), single replicates) was 80.777, the “cell viability (% of 0 JMF4073), Figure 5b” value (T315I-Bcr-Abl-32D cells [2]; shLacZ, JMF4073 1.25 mM (so in the source), single replicates) was 68.6184 and 53.2629 and the “cell viability (% of 0 JMF4073), Figure 5b” value (T315I-Bcr-Abl-32D cells [2]; shLacZ, JMF4073 2.5 mM (so in the source), single replicates) was 11.7008. The “cell viability (% of 0 JMF4073), Figure 5b” value (T315I-Bcr-Abl-32D cells [2]; shSHMT2, JMF4073 0.5 mM (so in the source), single replicates) was 67.1231, the “cell viability (% of 0 JMF4073), Figure 5b” value (T315I-Bcr-Abl-32D cells [2]; shSHMT2, JMF4073 1.25 mM (so in the source), single replicates) was 37.9395 and the “cell viability (% of 0 JMF4073), Figure 5b” value (T315I-Bcr-Abl-32D cells [2]; shSHMT2, JMF4073 2.5 mM (so in the source), single replicates) was 11.3951. For the same molecule, the “viability (0 = 100)” value (T315I-Bcr-Abl-32D cells [2]; T315I-Bcr-Abl, JMF4073 1 mM (so in the source), single replicates) was 70 and 66.4746, the “viability (0 = 100)” value (T315I-Bcr-Abl-32D cells [2]; T315I-Bcr-Abl, JMF4073 2 mM (so in the source), single replicates) was 12 and 38 and 34.0126 and the “viability (0 = 100)” value (T315I-Bcr-Abl-32D cells [2]; T315I-Bcr-Abl, JMF4073 5 mM (so in the source), single replicates) was 19 and 10 and 9.067. For the same molecule, the “JMF4073 sensitivity with BSO co-treatment” value (T315I-Bcr-Abl-32D cells [2]; T315I-Bcr-Abl-32D cells, BSO 12.5 μM) was “markedly increased” and the “JMF4073 sensitivity with UK-5099 treatment” value (T315I-Bcr-Abl-32D cells [2]; T315I-Bcr-Abl-32D cells, UK-5099 25 μM) was “sensitized”.
